Laboratory results from patent US20240401154A1, “SYNTHESIS AND PREPARATION OF ULTRA-LOW VISCOSITY AND HIGH MAGNETIC SUSCEPTIBILITY MAGNETIC IONIC LIQUIDS” (priority 2023, published 2024).
Marks after values point to notes of the source that are not given here.

Tests used:
Format in all cases: physicochemical
[1] = Viscosity, Brookfield DVI cone and plate viscometer; conditions: 21.7° C.; neat MIL dried 48 hours under vacuum
Procedure: A Brookfield DVI cone and plate viscometer equipped with a CPA-51Z cone spindle was employed to obtain viscosity measurements at […] using approximately 0.5 g of each MIL after extensive drying for 48 hours under vacuum. Viscosity measurements were conducted at 21.7° C. for 15 lanthanide and transition metal MILs examined in this study.
Viscosity measurements were conducted at 21.7° C. for 15 lanthanide and transition metal MILs examined in this study.

[2] = Effective magnetic moment from magnetic susceptibility balance (MSB); conditions: per formula unit
Procedure: Magnetic properties were analyzed using a magnetic susceptibility balance (MSB, Sherwood Scientific, Cambridge, UK) and a Quantum Design Superconducting Quantum Interference Device (SQUID) magnetometer (MPMS XL-7). The magnetic properties of transition metal MILs were further studied using a SQUID magnetometer to confirm their paramagnetic nature as well as if any magnetic transition occurs in the samples.
Magnetic susceptibility (XM) was calculated through Equation (1).
Effective magnetic moment (μeff) was calculated through Equation (2). In Equation (2), T represents the temperature at which the magnetic susceptibility measurements were conducted.
15 MILs incorporating rare-earth and transition metals were examined using a magnetic susceptibility balance (MSB).

[3] = Solubility of MILs in organic solvents and water
From the text: The solubility of lanthanide and transition metal MILs was investigated in popular traditional organic solvents. […]
The solubility of lanthanide and transition metal MILs was investigated in popular traditional organic solvents.

[4] = Thermal stability, MIL as GC stationary phase with FID; conditions: exponential increase in response beyond 2,000 pA
Procedure: (§1) The thermal stability of MILs was measured from 40 to 350° C. at a ramp rate of 5° C. min^−1 by performing thermogravimetric analysis (TGA) using a NETZSCH STA 449 F1 Jupiter thermal analyzer (Selb, Germany). To further investigate the thermal stability of MILs using a more sensitive technique, the solvents were employed as a gas chromatographic (GC) stationary phase and subjected to an oven temperature program from 40 to 200° C. at a ramp rate of 1° C. min^−1 and decomposition/degradation products detected using an ultra-sensitive flame ionization detector (FID), with all measurements being performed on an Agilent Technologies 7890B gas chromatograph (Santa Clara, CA, USA).
To further investigate the thermal stability of MILs using a more sensitive technique, the solvents were employed as a gas chromatographic (GC) stationary phase and subjected to an oven temperature program from 40 to 200° C. at a ramp rate of 1° C. min^−1 and decomposition/degradation products detected using an ultra-sensitive flame ionization detector (FID).

[5] = Thermal stability by thermogravimetric analysis (TGA); conditions: TGA at 10% weight loss
Procedure: as §1
Volitization/degradation of MILs as a function of temperature were measured using thermogravimetric analysis. The thermal stability of magnetic ionic liquids was measured from 40 to 350° C. at a ramp rate of 5° C. min^−1 by performing thermogravimetric analysis (TGA) using a NETZSCH STA 449 F1 Jupiter thermal analyzer (Selb, Germany).
To investigate the ability of DGE-based MILs to withstand elevated temperatures without undergoing degradation/decomposition, their thermal stabilities were investigated using thermogravimetric analysis (TGA). FIG. 13 through FIG. 27 display thermograms for MILs 1 to 15. The thermogram results are summarized in greater detail in the following paragraphs.

[6] = acetone, chloroform, dichloromethane, acetonitrile, methanol, ethanol, diethyl ether, ethyl acetate, isopropanol at 20% (w/v)
[7] = hexane, heptane, benzene, toluene at 10% (w/v)
[8] = hexane, heptane, benzene, toluene at 20% (w/v)
[9] = twelve organic solvents (without acetonitrile) at 50% (w/v)

Structure (SMILES) | Viscosity (cP) [1] | μeff, effective magnetic moment [2] [μB] | Solubility [3, 6] | Solubility ([3]; acetonitrile at 50% (w/v)) | Solubility [3, 7] | Solubility [3, 8] | Solubility [3, 9] | Solubility ([3]; water at 0.01% (w/v)) | Onset of MIL volatilization (° C.)^1 [4] [°C] | Onset of MIL volatilization (° C.)^2 [5] [°C]
CCCCCCOC(=O)COCC(=O)OCCCCCC.CCCCCCOC(=O)COCC(=O)OCCCCCC.CCCCCCOC(=O)COCC(=O)OCCCCCC.CCCCCCOC(=O)COCC(=O)OCCCCCC.CCCCCCOC(=O)COCC(=O)OCCCCCC.CCCCCCOC(=O)COCC(=O)OCCCCCC.O=C(C=C([O-])C(F)(F)F)C(F)(F)F.O=C(C=C([O-])C(F)(F)F)C(F)(F)F.O=C(C=C([O-])C(F)(F)F)C(F)(F)F.O=C(C=C([O-])C(F)(F)F)C(F)(F)F.O=C(C=C([O-])C(F)(F)F)C(F)(F)F.O=C(C=C([O-])C(F)(F)F)C(F)(F)F.[Mn+2].[Mn+2].[Mn+2] [compound 3] | 63.2 cP | 10.42 | S^b (soluble in acetone, chloroform, dichloromethane, acetonitrile, methanol, ethanol, diethyl ether, ethyl acetate, and isopropanol at 20% (w/v).) | S^e (insoluble in acetonitrile at 50% (w/v).) | S^a (soluble in hexane, heptane, benzene, and toluene at 10% (w/v).) | S^c (soluble in hexane, heptane, benzene, and toluene at 20% (w/v).) | S^d (soluble in acetone, chloroform, dichloromethane, methanol, ethanol, diethyl ether, ethyl acetate, isopropanol hexane, heptane, benzene, and toluene at 50% (w/v).) | S^f (insoluble in water at 0.01% (w/v).) | 168 | 256.8
CCCCCCCCOC(=O)c1ccc(C(=O)OCCCCCCCC)o1.CCCCCCCCOC(=O)c1ccc(C(=O)OCCCCCCCC)o1.CCCCCCCCOC(=O)c1ccc(C(=O)OCCCCCCCC)o1.CCCCCCCCOC(=O)c1ccc(C(=O)OCCCCCCCC)o1.CCCCCCCCOC(=O)c1ccc(C(=O)OCCCCCCCC)o1.CCCCCCCCOC(=O)c1ccc(C(=O)OCCCCCCCC)o1.O=C(C=C([O-])C(F)(F)F)C(F)(F)F.O=C(C=C([O-])C(F)(F)F)C(F)(F)F.O=C(C=C([O-])C(F)(F)F)C(F)(F)F.O=C(C=C([O-])C(F)(F)F)C(F)(F)F.O=C(C=C([O-])C(F)(F)F)C(F)(F)F.O=C(C=C([O-])C(F)(F)F)C(F)(F)F.[Ni+2].[Ni+2].[Ni+2] [compound 11] | 453.5^b cP | 5.51 | S^b (soluble in acetone, chloroform, dichloromethane, acetonitrile, methanol, ethanol, diethyl ether, ethyl acetate, and isopropanol at 20% (w/v).) | – | S^a (soluble in hexane, heptane, benzene, and toluene at 10% (w/v).) | S^c (soluble in hexane, heptane, benzene, and toluene at 20% (w/v).) | S^d (soluble in acetone, chloroform, dichloromethane, methanol, ethanol, diethyl ether, ethyl acetate, isopropanol hexane, heptane, benzene, and toluene at 50% (w/v).) | S^f (insoluble in water at 0.01% (w/v).) | 142 | 160.6
CCCCCCCCOC(=O)COCC(=O)OCCCCCCCC.CCCCCCCCOC(=O)COCC(=O)OCCCCCCCC.CCCCCCCCOC(=O)COCC(=O)OCCCCCCCC.CCCCCCCCOC(=O)COCC(=O)OCCCCCCCC.CCCCCCCCOC(=O)COCC(=O)OCCCCCCCC.CCCCCCCCOC(=O)COCC(=O)OCCCCCCCC.O=C(C=C([O-])C(F)(F)F)C(F)(F)F.O=C(C=C([O-])C(F)(F)F)C(F)(F)F.O=C(C=C([O-])C(F)(F)F)C(F)(F)F.O=C(C=C([O-])C(F)(F)F)C(F)(F)F.O=C(C=C([O-])C(F)(F)F)C(F)(F)F.O=C(C=C([O-])C(F)(F)F)C(F)(F)F.[Mn+2].[Mn+2].[Mn+2] [compound 6] | 96.3 cP | 10.25 | S^b (soluble in acetone, chloroform, dichloromethane, acetonitrile, methanol, ethanol, diethyl ether, ethyl acetate, and isopropanol at 20% (w/v).) | – | S^a (soluble in hexane, heptane, benzene, and toluene at 10% (w/v).) | S^c (soluble in hexane, heptane, benzene, and toluene at 20% (w/v).) | S^d (soluble in acetone, chloroform, dichloromethane, methanol, ethanol, diethyl ether, ethyl acetate, isopropanol hexane, heptane, benzene, and toluene at 50% (w/v).) | S^f (insoluble in water at 0.01% (w/v).) | 182 | 259.1
CCCCCCCCOC(=O)c1ccc(C(=O)OCCCCCCCC)o1.CCCCCCCCOC(=O)c1ccc(C(=O)OCCCCCCCC)o1.CCCCCCCCOC(=O)c1ccc(C(=O)OCCCCCCCC)o1.CCCCCCCCOC(=O)c1ccc(C(=O)OCCCCCCCC)o1.CCCCCCCCOC(=O)c1ccc(C(=O)OCCCCCCCC)o1.CCCCCCCCOC(=O)c1ccc(C(=O)OCCCCCCCC)o1.O=C(C=C([O-])C(F)(F)F)C(F)(F)F.O=C(C=C([O-])C(F)(F)F)C(F)(F)F.O=C(C=C([O-])C(F)(F)F)C(F)(F)F.O=C(C=C([O-])C(F)(F)F)C(F)(F)F.O=C(C=C([O-])C(F)(F)F)C(F)(F)F.O=C(C=C([O-])C(F)(F)F)C(F)(F)F.[Mn+2].[Mn+2].[Mn+2] [compound 12] | 291.8^b cP | 10.04 | S^b (soluble in acetone, chloroform, dichloromethane, acetonitrile, methanol, ethanol, diethyl ether, ethyl acetate, and isopropanol at 20% (w/v).) | – | S^a (soluble in hexane, heptane, benzene, and toluene at 10% (w/v).) | S^c (soluble in hexane, heptane, benzene, and toluene at 20% (w/v).) | S^d (soluble in acetone, chloroform, dichloromethane, methanol, ethanol, diethyl ether, ethyl acetate, isopropanol hexane, heptane, benzene, and toluene at 50% (w/v).) | S^f (insoluble in water at 0.01% (w/v).) | 144 | 160.4
CCCCCCCCOC(=O)COCC(=O)OCCCCCCCC.CCCCCCCCOC(=O)COCC(=O)OCCCCCCCC.CCCCCCCCOC(=O)COCC(=O)OCCCCCCCC.CCCCCCCCOC(=O)COCC(=O)OCCCCCCCC.CCCCCCCCOC(=O)COCC(=O)OCCCCCCCC.CCCCCCCCOC(=O)COCC(=O)OCCCCCCCC.O=C(C=C([O-])C(F)(F)F)C(F)(F)F.O=C(C=C([O-])C(F)(F)F)C(F)(F)F.O=C(C=C([O-])C(F)(F)F)C(F)(F)F.O=C(C=C([O-])C(F)(F)F)C(F)(F)F.O=C(C=C([O-])C(F)(F)F)C(F)(F)F.O=C(C=C([O-])C(F)(F)F)C(F)(F)F.O=C(C=C([O-])C(F)(F)F)C(F)(F)F.O=C(C=C([O-])C(F)(F)F)C(F)(F)F.[Co+2].[Dy+3].[Dy+3] [compound 13] | 137.2 cP | 15.38 | S^b (soluble in acetone, chloroform, dichloromethane, acetonitrile, methanol, ethanol, diethyl ether, ethyl acetate, and isopropanol at 20% (w/v).) | – | S^a (soluble in hexane, heptane, benzene, and toluene at 10% (w/v).) | S^c (soluble in hexane, heptane, benzene, and toluene at 20% (w/v).) | S^d (soluble in acetone, chloroform, dichloromethane, methanol, ethanol, diethyl ether, ethyl acetate, isopropanol hexane, heptane, benzene, and toluene at 50% (w/v).) | S^f (insoluble in water at 0.01% (w/v).) | 131 | 182.3
